Source: ChEMBL document CHEMBL1687692, “Exploring α7-Nicotinic Receptor Ligand Diversity by Scaffold Enumeration from the Chemical Universe Database GDB” (ACS Med Chem Lett, 2010)
pEC50, pIC50, pKi: −log10 of the molar value.

Assays:
[1] = molecular target: T1, Neuronal acetylcholine receptor subunit alpha-7 (Homo sapiens, UniProt P36544); experiment: Competitive antagonist activity at human alpha7 nAChR expressed in Xenopus oocyte assessed as inhibition of ACh-induced current by voltage clamp method; format: functional
T1 sequence (P36544 whole entry): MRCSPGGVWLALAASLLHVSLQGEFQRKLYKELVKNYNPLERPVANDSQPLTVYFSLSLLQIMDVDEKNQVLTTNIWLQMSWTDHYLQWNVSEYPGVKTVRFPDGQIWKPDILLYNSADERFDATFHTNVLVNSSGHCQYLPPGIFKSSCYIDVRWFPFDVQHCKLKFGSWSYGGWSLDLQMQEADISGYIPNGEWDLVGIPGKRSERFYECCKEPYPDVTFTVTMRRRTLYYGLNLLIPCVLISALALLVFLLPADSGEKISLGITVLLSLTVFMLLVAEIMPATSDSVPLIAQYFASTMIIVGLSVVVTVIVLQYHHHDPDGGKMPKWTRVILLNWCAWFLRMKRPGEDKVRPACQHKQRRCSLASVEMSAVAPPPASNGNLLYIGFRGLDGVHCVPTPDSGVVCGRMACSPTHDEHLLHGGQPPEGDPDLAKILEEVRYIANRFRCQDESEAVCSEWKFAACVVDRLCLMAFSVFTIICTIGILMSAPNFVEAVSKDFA

[2] = molecular target: T1, Neuronal acetylcholine receptor subunit alpha-7; experiment: Non competitive antagonist activity at human alpha7 nAChR expressed in Xenopus oocyte assessed as inhibition of ACh-induced current by voltage clamp method; format: functional
[3] = molecular target: T1, Neuronal acetylcholine receptor subunit alpha-7; experiment: Antagonist activity at human alpha7 nAChR expressed in Xenopus oocyte assessed as inhibition of ACh-induced current by voltage clamp method; format: functional
[4] = molecular target: T1, Neuronal acetylcholine receptor subunit alpha-7; experiment: Partial agonist activity at human alpha7 nAChR expressed in Xenopus oocyte […] current by voltage clamp method; format: functional
[5] = molecular target: T1, Neuronal acetylcholine receptor subunit alpha-7; experiment: Binding affinity to human alpha7 nAChR

O=C(Oc1ccc(Br)cc1)N1CCCN2CCC[C@H]2C1
pIC50 [1]: 5.25

C[C@H]1CN2CCCC[C@@H]2CN1C(=O)c1ccc2c(c1)OCCO2
pIC50 [2]: 5.21

CC(C)N1CCCCN(C(=O)c2ccc(Cl)cc2)CC1
pIC50 [3]: 5.15

O=C(NCC12CCCN1CCC2)c1ccc(Cl)cc1
pIC50 [3]: 5.14

O=C(Oc1ccc(Br)cc1)N1CCN2CCC1CC2 [SSR180711]
pEC50 [4]: 5.36 | pKi [5]: 7.85
